Experimental data taken from publication PMC10728220, “Novel 3-(pyrazol-4-yl)-2-(1H-indole-3-carbonyl)acrylonitrile derivatives induce intrinsic and extrinsic apoptotic death mediated P53 in HCT116 colon carcinoma” (Scientific Reports, 2023).

Key:
Human caspase-9 = experiment: ELISA caspase 9 production in HCT116; assay type: cell-based; conditions: HCT116 treated with 7f
Description: The compound 7f induced caspase 9 production in a dose–response approach. This was achieved by using the following concentrations of chalcone 7f (1.6, 3.1, 6.3, 12.5, 25, 50, 100 ng/ml). There was a continuing rise in the caspase 9 production level by increasing the concentrations regularly. Compound 7f was able to stimulate the production of caspase 9 by inducing a 21.43 ng/ml of caspase 9.
The quantitative measurements of Human caspases-3, -8, and -9 concentrations in HCT116 cell culture lysates were performed using ELISA assay. The protocols were followed up based on the manuscript instructions described in the following kits; Invitrogen human Caspase-3 Elisa Kit, Catalog # KHO1091, DRG® human Caspase-8 ELISA Kit, Catalog # (EIA-4863), and DRG® human Caspase-9 ELISA Kit, Catalog # (EIA-4860)respectively. In short, the procedure described in the above protocols was as instructed; all reagents, standards, and samples were prepared. Then, 100 μL of standard or samples were added to each well and incubated at room temperature for 2 h. […] All readings were measured immediately at a wavelength of 450 nm. From the readings of the standards, a standard curve was plotted using curve fitting software. Then, the concentrations for unknown samples and controls were measured from the standard curve.

Bcl2 = experiment: RT-PCR gene expression, Bcl2, in HCT116; assay type: cell-based, human; conditions: HCT116, 6.76 µg/mL, 48 h, relative to untreated control
Description: (§1) In this current research, relative gene expression related to apoptosis should be studied well because they were very interesting to understand the effect of our selected compound on this important biological process. HCT116 cells were treated with chalcone 7f (6.76µg/mL) for 48 h, and then subjected to qPCR analysis regarding control samples. The effect of chalcone 7f on the expression level of (Bax, p53, Bcl2, and CDK4) genes was assessed using the qPCR technique. […] As indicated in this schematic diagram, the expression of apoptotic genes (Bax and P53) was enhanced by the effect of chalcone 7f to reach (3.662, and 5.435) respectively, relative to the control.
(§2) Total RNA was extracted from the compound 7f-treated HCT116 cells and the untreated cells using the RNA Purification Kit GeneJET (Thermo scientific, ON, Canada) 0.1 µg of the extracted RNA was reverse transcribed into complementary DNA (cDNA) using High-Capacity cDNA Reverse Transcription Kit (Thermo Scientific, ON, Canada). qPCR was done using Brilliant SYBR Green qPCR master mix (Applied Biosystems, San Francisco, CA, USA) in One Step Plus Real-Time PCR System (Applied Biosystems, San Francisco, CA, USA). […] The relative gene expression was determined using the 2^−ΔΔCt equation after normalization to the expression of β-actin (housekeeping gene) (Qiagen, CA, USA)(10 pmol/µL)[85], [86]. […]

p53 = experiment: RT-PCR gene expression, p53, in HCT116; assay type: cell-based, human; conditions: HCT116, 6.76 µg/mL, 48 h, relative to untreated control
Description: as §1, §2

lung carcinoma (A549) = experiment: Cytotoxic MTT assay, A549; assay type: cell-based; conditions: Homo sapiens, 48 h treatment
Description: MTT protocol was performed to study the viability of cells after treatment with the tested compounds. The studied cell lines (A549 and HCT116) were cultured and grown in RPMI‐1640 media, while HFB4 cells were reserved in DMEM‐F12 media. Both media were supplemented with 10% FBS, 1% L‐glutamine, and 1% antibiotic–antimycotic mixture. The cell lines were grown at conditions of 37 °C and 5% CO2. 10 × 10^3 of A549, and HCT116 cells and the same count of normal melanocytes (HFB4) were cultured in a 96‐well plate. The selected cultured cells were kept at 37°C and 5% CO2 overnight. Then, the medium was discarded after 24 h of incubation, and 100 µL from different concentrations of the studied compounds dissolved in fresh medium without serum, with final concentrations of 100, 50, 25, 12.5, 6.25, 3.125, 1.56, and 0.78 µg/mL was added. The treated cells were then incubated for 48 h. After that, 50 µL of MTT was added into each well for 4 h for the formazan crystals to be formed. Finally, 200 µl of 10% sodium dodecyl sulphate (SDS) was added to each well, and plates were kept at room temperature overnight to allow the reaction to be stopped. The optical density at 575 nm was read using a microplate multi-well reader, and the percentage of cell viability was calculated. The dose–response curve was drawn to calculate the IC50 values for each compound using the prism GraphPad 5 program, [84]. 5 Fluorouracil, a commercial anticancer drug was used as a reference drug (positive control). Negative untreated cell control was used in this assay.

N#C/C(=C\c1cn(-c2ccccc2)nc1-c1ccc([N+](=O)[O-])cc1)C(=O)c1c[nH]c2ccccc12 [Compound 7f, (E)-2-(1H-Indole-3-carbonyl)-3-(3-(4-nitrophenyl)-1-phenyl-1H-pyrazol-4-yl)acrylonitrile] was tested, and the “caspase 9 production” value (Human caspase-9) was 21.43 ng/mL, the “caspase 9 production, fold increase compared to control cells” value (Human caspase-9) was ~4.641 fold and the “RT-PCR fold change bcl2” value (Bcl2) was 0.351 fold. The “RT-PCR fold change p53” value (p53) was 5.435 fold and the IC50 (lung carcinoma (A549)) was > 100 µg/mL.
